In the assay the test system is subjects having secondary (AA) amyloidosis. Description: Randomized, double-blind, placebo-controlled 24-month efficacy and safety study of PDS in secondary (AA) amyloidosis. It is filed as in vivo, human. As for the experimental part: A multicenter, multinational, randomized, double-blind, placebo-controlled, and parallel-design study to assess the efficacy and safety of 1,3-propanedisulfonic acid disodium salt (PDS) in subjects having secondary (AA) amyloidosis is conducted. […] If ClCr decreases or increases to the next lower or higher range level, the dose regimen is adjusted accordingly. Subject medication is administered orally (capsule). Each patient is evaluated on 16 occasions, including on-site visits at months 0 (baseline), 1, 4, 8, 12, 16, 20 and 24.
The volume of urine is recorded in the case report form at study site and an aliquot of urine is sent to the central laboratory for determination of urinary creatinine. A blood sample is collected to measure serum creatinine. The creatinine clearance (ClCr) is calculated using the following formula and recorded in the case report form: […]
The creatinine clearance normalized for body surface area is calculated by dividing the creatinine clearance by the body surface area.
Subjects are classified into three categories based on a composite assessment of renal function at the end of the 24 month treatment period compared to baseline. […] Subjects are classified as “improved” if the following clinical milestones of improvement are met: ≧50% increase in ClCr and no clinical milestones of worsening. Subjects are classified as “stable” if none of the clinical milestones of worsening or improvement are met.
All subjects are categorized according to the evolution of their disease (“worse”, “stable”, or “improved”). This constitutes the primary efficacy endpoint for the study and is analyzed in the Intent-to-Treat (ITT) population according to two pre-specified statistical methodologies: 1) the Cochran-Mantel-Haenszel row mean scores test (CMH test) to compare the percentage of subjects who reach each category at the end of the study in comparison to their status at Baseline, and 2) a proportional hazards regression model (Cox analysis) to compare between treatment groups both the number of first “worse” events, as well as when they occur, thus making more use of all available data. Both methodologies are adjusted for the stratification of nephrotic status at Baseline (nephrotic vs non-nephrotic) as pre-specified.
The primary efficacy endpoint is a composite assessment of clinical improvement/worsening of renal function. At the end of the study, the subjects are classified into three categories, “Worse” and death (all causes), “Stable”, or “Improved”. […] The subjects are classified as “stable” if none of the clinical milestones of worsening or improvement are met. […] The term “End of Study” is defined as Month 24 for subjects who completed the study and as the last available measurement for the subjects who discontinued early.
The secondary efficacy endpoints are an assessment of clinical improvement/worsening of both renal and gastrointestinal functions. At the end of the study, subjects are classified into three categories based on their condition: worse, stable, or improved.
This parameter will be normalized for body surface area and the least-squares estimate of the within-subject slope will be calculated using all available creatinine clearance measurements. Although the study is for 2 years, the slope will be expressed as an annual rate of change.
Change from baseline to End of Study in Proteinuria and Creatinine Clearance will be analyzed as a secondary efficacy endpoint. The End of Study is defined as Month 24 for subjects who completed and as the last available visit for subjects who discontinued early. At Screening, proteinuria, creatinine clearance, and serum creatinine are to be collected from two distinct assessments which are to have been at least 1 week apart and within 3 months prior to study entry (Baseline visit). For the creatinine clearance parameter, the normalized value will be used.

Setting [1] is: End of the Study, compared to placebo.
The mark [2] stands for this setting: composite renal assessment at end of 24 month treatment, 400-1200 mg BID by ClCr, p value=0.06.

Structures are written as SMILES.

Turning to `O=S(=O)([O-])CCCS(=O)(=O)[O-].[Na+].[Na+]` [PDS, 1,3-propanedisulfonic acid, disodium salt], the “mean difference in slope of creatinine clearance, treated vs. placebo” value (End of the Study) amounted to 4.7 mL/min/1.73 m^2/year. Further, where the note is “End of the Study, PDS treated subjects”, the “median time to the first worse event” value was determined as 14.5 months. In addition, the “reduction in the rate of loss of renal function (slope of creatinine clearance over time)” value (End of the Study, PDS-treated vs placebo) worked out at 30.1%. For the same compound, under setting [1], the “reduction of risk of dialysis/ESRD” value is 46%, the “reduction of risk of doubling of serum creatinine” value was 59% and the “reduction of risk of ≧50% decrease in creatinine clearance” value is 52%. Besides, the “median time to dialysis, longer than placebo” value (End of the Study, patients progressing to dialysis) is listed as 5.3 months. Besides, the “median time to doubling of serum creatinine, longer than placebo” value (End of the Study, patients with a doubling of SCr) stood at 3.6 months. In addition, the “median time to at least a 50% decrease in creatinine clearance, longer than placebo” value (End of the Study, patients with a ≧50% decrease in CrCl) was found to be 4.4 months. The “risk of any worse event of renal decline or all-cause mortality, relative to the risk for placebo” value (End of the Study, printed as reduction to this % of the risk for placebo) stood at 42%. Further, the “median time to the first worse event, longer than placebo” value (End of the Study, treated vs placebo) stood at 6.4 months. Moreover, under “PDS group N = 89, n 85”, the “creatinine clearance, Change from End of Study to Baseline, Median” value was −11.35 mL/min/1.73 m^2. The “slope of creatinine clearance normalized for body surface area, Mean (S.E.)” value (PDS group N = 89, n 85, annual rate of change) is on record as −10.9 (5.1) mL/min/1.73 m^2/year. For the same compound, the “slope of creatinine clearance normalized for body surface area, Median” value (PDS group N = 89, n 85, annual rate of change, P-value vs placebo 0.025) is given as −5.9 mL/min/1.73 m^2/year. Further, under “PDS group N = 89, n 85, p-value vs placebo 0.058”, the “creatinine clearance, Change from End of Study to Baseline, Mean (S.E.)” value is given as −14.68 (4.19) mL/min/1.73 m^2. Under setting [2], the “fewer subjects classified as worse compared to placebo” value amounted to 13.4% and the “more subjects stable or improved compared to placebo” value was found to be 13.4%. For the same compound, the “estimated difference in CrCl change, PDS vs placebo” value (end of the study) is recorded as 7.7 mL/min/1.73 m^2. Besides, the “mean difference in CrCl (baseline to end of study)” value (end of the study, PDS treated subjects) is given as −14.7±4.2 mL/min/1.73 m^2.

These data come from US20130296434A1, “FORMULATIONS AND METHODS FOR TREATING AMYLOIDOSIS” (Kiacta Sarl, priority 2005, published 2013).
